# From patent US20240253988A1, “PROCESS FOR THE PRODUCTION OF HYDROGEN PEROXIDE” (ARKEMA FRANCE, priority 2021, published 2024)
# Experiments:
# [1] = Water solubility, coulometric Karl Fischer titration ASTM-D6304; format: physicochemical
# Protocol: According to some preferred embodiments, the organic solvent is not soluble (or essentially not soluble) in water, and preferably has a water solubility equal to or lower than 200 mg/kg, preferably equal to or lower than 190 mg/kg, and more preferably equal to or lower than […]. Water solubility can be determined by coulometric Karl Fischer titration according to ASTM-D6304.
# Water solubility can be determined by coulometric Karl Fischer titration according to ASTM-D6304.
# [2] = Vapor pressure, ebulliometry ASTM-E1719; format: physicochemical
# Protocol: Furthermore, the solvent of formula (I) may have a vapor pressure equal to or lower than 450 Pa, preferably equal to or lower than 400 Pa, and more preferably equal to or lower 350 Pa at 20° C. For example, the solvent of formula (I) may have a vapor pressure equal to or lower than 450 Pa, or equal to or lower than 400 Pa, or equal to or lower than 350 Pa, or equal to or lower than 300 Pa, or equal to or lower than 250 Pa, or equal to or lower than 200 Pa, or equal to or lower than 250 Pa, or equal to or lower than 200 Pa, or equal to or lower than 150 Pa, or equal to or lower than 100 Pa, at 20° C. Vapor pressure can be determined by ebulliometry according to ASTM-E1719.
# Vapor pressure can be determined by ebulliometry according to ASTM-E1719.
# [3] = Specific gravity, hydrometer ASTM-D891; format: physicochemical
# Source text: The organic solvent according to the present invention may have a specific gravity equal to or lower than 0.95, and preferably equal to or lower than 0.94. According to preferred embodiments, the organic solvent according to the present invention may have a specific gravity from 0.89 to 0.95, and preferably from 0.90 to 0.94. Specific gravity can be determined by means of a hydrometer according to ASTM-D891.
# Specific gravity can be determined by means of a hydrometer according to ASTMD891.
# [4] = Flash point, closed-cup apparatus ASTM-D3278; format: physicochemical
# Protocol: According to preferred embodiments, the organic solvent according to the present invention may have a flash point higher than 60° C., preferably higher than 62.5° C. and more preferably higher than 65° C. Flash point can be determined by closed-cup apparatus according to ASTM-D3278.
# Flash point can be determined by closed-cup apparatus according to ASTM-D3278.
# [5] = format: physicochemical
# Protocol: The solubility of 2-ethylanthraquinone (2-EAQ) was measured in four different solvents. Solvents A to C are according to the invention, while solvent D is a comparative solvent: • Solvent A: 1-ethyl-4-methoxybenzene • Solvent B: 2,6-dimethylanisole • Solvent C: phenylpropylether • Solvent D: 1,3,5-trimethylbenzene
# Solubilities were determined by equilibrating the 2-ethylanthraquinone with the solvent in a glass flask shaken in a carefully temperature controlled atmosphere. Analysis of the samples was done by liquid chromatography. Reference mixtures were prepared for calibration.
# The solubility is measured at a temperature of 20° C.
Structure (SMILES),Water solubility [1] [mg/kg],Vapor Pressure [2] [Pa],Specific gravity [3],Flashpoint [4],2-EAQ solubility [5]
"CCc1ccc(OC)cc1 [Solvent A, 1-ethyl-4-methoxybenzene]",90,67,0.944,68-72 °C,229 g/kg of solvent
"COc1ccccc1 [Anisole (*), Anisole, reference compound]",1728,490,0.995,49-52 °C,
"CCCOc1ccccc1 [Solvent C, phenylpropylether]",141,60,0.946,64-65 °C,229 g/kg of solvent
"COc1c(C)cccc1C [Solvent B, 2,6-dimethylanisole]",114,124,0.943,61-67 °C,226 g/kg of solvent
"Cc1cc(C)cc(C)c1 [Solvent D, 1,3,5-trimethylbenzene, reference compound]",,,,,210 g/kg of solvent
